The supplement of paper PMC11451515

Tested on: P12-Ichikawa
Experiment: cell viability relative to DMSO control; higher = less cytotoxic
Settings: 48 h
How it was run: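 In 1536-well plates, 5 μl of leukemia cells were seeded per well: 500 cells/well for NOMO1 or SEM and 1000 cells/well for P12-Ichikawa. Each line had first been adapted for at least four passages in each medium. Library compounds in DMSO were pin-dosed at 11 threefold concentrations between 47 μM and 0.79 nM, and CellTiter-Glo One luminescence was read after 48 h at 37°C. Viability is a per-plate percentage relative to DMSO wells, with cell-free wells as background.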

[1] = HPLM + 10% dialyzed FBS, 0.000781 µM
[2] = HPLM + 10% dialyzed FBS, 0.00234 µM
[3] = HPLM + 10% dialyzed FBS, 0.00702 µM
[4] = HPLM + 10% dialyzed FBS, 0.0211 µM
[5] = HPLM + 10% dialyzed FBS, 0.0632 µM
[6] = HPLM + 10% dialyzed FBS, 0.19 µM
[7] = HPLM + 10% dialyzed FBS, 0.569 µM
[8] = HPLM + 10% dialyzed FBS, 1.71 µM
[9] = HPLM + 10% dialyzed FBS, 5.12 µM
[10] = HPLM + 10% dialyzed FBS, 15.4 µM
[11] = HPLM + 10% dialyzed FBS, 46.1 µM
[12] = RPMI 5 mM glucose + 10% FBS, 0.000781 µM
[13] = RPMI 5 mM glucose + 10% FBS, 0.00234 µM
[14] = RPMI 5 mM glucose + 10% FBS, 0.00702 µM
[15] = RPMI 5 mM glucose + 10% FBS, 0.0211 µM
[16] = RPMI 5 mM glucose + 10% FBS, 0.0632 µM
[17] = RPMI 5 mM glucose + 10% FBS, 0.19 µM
[18] = RPMI 5 mM glucose + 10% FBS, 0.569 µM
[19] = RPMI 5 mM glucose + 10% FBS, 1.71 µM
[20] = RPMI 5 mM glucose + 10% FBS, 5.12 µM
[21] = RPMI 5 mM glucose + 10% FBS, 15.4 µM
[22] = RPMI 5 mM glucose + 10% FBS, 46.1 µM
[23] = RPMI 5 mM glucose + 10% dialyzed FBS, 0.000781 µM
[24] = RPMI 5 mM glucose + 10% dialyzed FBS, 0.00234 µM
[25] = RPMI 5 mM glucose + 10% dialyzed FBS, 0.00702 µM
[26] = RPMI 5 mM glucose + 10% dialyzed FBS, 0.0211 µM
[27] = RPMI 5 mM glucose + 10% dialyzed FBS, 0.0632 µM
[28] = RPMI 5 mM glucose + 10% dialyzed FBS, 0.19 µM
[29] = RPMI 5 mM glucose + 10% dialyzed FBS, 0.569 µM
[30] = RPMI 5 mM glucose + 10% dialyzed FBS, 1.71 µM
[31] = RPMI 5 mM glucose + 10% dialyzed FBS, 5.12 µM
[32] = RPMI 5 mM glucose + 10% dialyzed FBS, 15.4 µM
[33] = RPMI 5 mM glucose + 10% dialyzed FBS, 46.1 µM

Row | SMILES | cell viability [1] | cell viability [2] | cell viability [3] | cell viability [4] | cell viability [5] | cell viability [6] | cell viability [7] | cell viability [8] | cell viability [9] | cell viability [10] | cell viability [11] | cell viability [12] | cell viability [13] | cell viability [14] | cell viability [15] | cell viability [16] | cell viability [17] | cell viability [18] | cell viability [19] | cell viability [20] | cell viability [21] | cell viability [22] | cell viability [23] | cell viability [24] | cell viability [25] | cell viability [26] | cell viability [27] | cell viability [28] | cell viability [29] | cell viability [30] | cell viability [31] | cell viability [32] | cell viability [33]
1 | O=C\1N(N\C=C1[N]2C=CN=N2)C3=NC=NC(=C3)N4CCOCC4 | 78.4% | 81.7% | 76.7% | 82.8% | 56.6% | 32.5% | 18.6% | 20.6% | 19.2% | 15.9% | 8.11% | 68.7% | 82.9% | 76.4% | 81% | 74.8% | 46.8% | 13.4% | 30.9% | 16.8% | 15.2% | 11.9% | 74.2% | 83.1% | 78.1% | 78.6% | 72.2% | 47.2% | 34.4% | 38.9% | 20.8% | 26.8% | 17%
2 | CC(/C=C/C(=O)NO)=C\[C@@H](C)C(=O)c1ccc(N(C)C)cc1 | 111% | 115% | 114% | 107% | 109% | 114% | 90.5% | 48.4% | 3.82% | 1.6% | 0.388% | 116% | 116% | 119% | 114% | 119% | 111% | 98.3% | 28.3% | 2.14% | 1.05% | 0.409% | 107% | 113% | 109% | 116% | 110% | 107% | 91.8% | 29.8% | 2.07% | 1.68% | 0.629%
3 | CC(C)c1cc(C(=O)N2Cc3ccc(CN4CCN(C)CC4)cc3C2)c(O)cc1O | 118% | 121% | 123% | 106% | 124% | 109% | 89.3% | 65.8% | 54.7% | 52.8% | 51.4% | 115% | 119% | 115% | 105% | 114% | 97.7% | 56.4% | 52.5% | 41.3% | 40.7% | 39.8% | 119% | 122% | 125% | 112% | 125% | 112% | 65.3% | 50% | 43.3% | 44.5% | 43.3%
4 | CN1C(=O)C[C@H](C(=O)N[C@@H](Cc2cnc[nH]2)C(=O)N2CCC[C@H]2C(N)=O)NC1=O |  |  |  |  |  |  |  |  |  |  |  |  |  |  |  |  |  |  |  |  |  |  | 114% | 128% | 121% | 115% | 132% | 123% | 118% | 120% | 119% | 119% | 90.6%
5 | Cc1[nH]c(/C=C2\C(=O)Nc3ccccc32)c(C)c1CCC(=O)O | 95.3% | 101% | 99.3% | 105% | 111% | 114% | 88.7% | 104% | 73.1% | 32.2% | 6.87% | 105% | 103% | 93.9% | 110% | 110% | 118% | 87.1% | 106% | 72.9% | 42% | 7.11% | 102% | 105% | 113% | 110% | 113% | 112% | 91.1% | 101% | 82.3% | 65.2% | 11.2%
6 | CCOC(=O)c1cncn1[C@H](C)c1ccccc1 | 122% | 123% | 115% | 127% | 128% | 121% | 125% | 121% | 112% | 109% | 106% | 125% | 129% | 122% | 136% | 122% | 116% | 121% | 113% | 115% | 114% | 120% | 121% | 126% | 119% | 124% | 128% | 122% | 126% | 121% | 115% | 113% | 111%
7 | CCC\C1=C\C(=O)NC(=S)N1 | 99.4% | 107% | 109% | 111% | 120% | 120% | 94.2% | 110% | 87.6% | 38.4% | 8.65% | 107% | 112% | 110% | 118% | 119% | 112% | 85% | 104% | 78.9% | 40.8% | 7.58% | 102% | 105% | 103% | 115% | 118% | 119% | 99.7% | 113% | 83.9% | 68.3% | 9.42%
8 | C[C@H]1[C@@H](C(=O)C[C@H]2O[C@@H]3O[C@]4(C)CC[C@H]5[C@H](C)CC[C@@H]([C@H]2C)[C@@]35OO4)O[C@@H]2O[C@]3(C)CC[C@H]4[C@H](C)CC[C@@H]1[C@@]24OO3 | 117% | 113% | 116% | 124% | 115% | 119% | 113% | 110% | 90.1% | 86.3% | 14.4% | 117% | 130% | 121% | 121% | 120% | 119% | 102% | 104% | 102% | 82.7% | 9.74% | 120% | 111% | 112% | 113% | 110% | 101% | 98.8% | 102% | 93.6% | 56.1% | 15.4%
